Experimental data taken from PubChem BioAssay AID1963430 (Molecular Pharmacology Branch, DTP, NCI, 2024).
Values joined by “and” are separate entries in the source; they are usually repeats but may differ in a detail not shown here. Equal entries are not always repeated. Each block holds one compound with its values, some of them ahead of it.

Tested on: 521955-158-R2-J5-PDC complex spheroid growth, % test/control
Test: Anticancer human tumor 521955-158-R2-J5-PDC patient-derived pancreatic carcinoma cell line growth inhibition [Asc]
Settings: for viability, T/C: stronger effect = lower value
In short: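 Tumor cells were grown as complex spheroids with human endothelial cells (HUVEC) and human mesenchymal stem cells as stroma. Agents were tested alone and in combination, in half-log steps down from the clinical Cmax, or from 10 microM where Cmax was unknown.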
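Further: spheroids exposed to agents for 7 days before readout.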
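Wherever viability, T/C is given: 100% = DMSO vehicle control viability.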

- IC50 (curve of compound): 5.33 µM and 5.44 µM and 5.66 µM
SMILES: C=C(F)C(=O)N1CCN(c2nc(OCC3CCCN3C)nc3c2CCN(c2cccc4cccc(Cl)c24)C3)CC1CC#N (configuration not stated)
- viability, T/C (compound 0.0316 µM): 68.6% and 77.1% and 84.2%
- viability, T/C (compound 0.1 µM): 89% and 77.1% and 94.1%
- viability, T/C (compound 0.316 µM): 78.8% and 86.1% and 107%
- viability, T/C (compound 1 µM): 105% and 95.4% and 98.1%
- viability, T/C (compound 3.16 µM): 115% and 136% and 120%
- viability, T/C (compound 10 µM): 0.29% and 0.32% (2×)

- IC50 (curve of first compound, second compound 0.01 µM): > 0.1 µM
- IC50 (curve of first compound, second compound 0.0316 µM): > 0.1 µM
- IC50 (curve of first compound, second compound 0.1 µM): > 0.1 µM
- IC50 (curve of first compound, second compound 0.316 µM): > 0.1 µM
- IC50 (curve of first compound, second compound 1 µM): > 0.1 µM
SMILES: NC1CCC(NC2CC2c2ccccc2)CC1 (configuration not stated) + CNC(C)C(=O)NC1CN(S(=O)(=O)c2cccc(S(=O)(=O)N3CCC4CCC(C(=O)NC(c5ccccc5)c5ccccc5)N4C(=O)C(NC(=O)C(C)NC)C3)c2)CCC2CCC(C(=O)NC(c3ccccc3)c3ccccc3)N2C1=O
- viability, T/C (second compound 0.01 µM, first compound 0.000316 µM): 79.9%
- viability, T/C (second compound 0.01 µM, first compound 0.001 µM): 70.7%
- viability, T/C (second compound 0.01 µM, first compound 0.00316 µM): 82.2%
- viability, T/C (second compound 0.01 µM, first compound 0.01 µM): 80.9%
- viability, T/C (second compound 0.01 µM, first compound 0.0316 µM): 71.6%
- viability, T/C (second compound 0.01 µM, first compound 0.1 µM): 69.1%
- viability, T/C (second compound 0.0316 µM, first compound 0.000316 µM): 88.5%
- viability, T/C (second compound 0.0316 µM, first compound 0.001 µM): 81.4%
- viability, T/C (second compound 0.0316 µM, first compound 0.00316 µM): 61%
- viability, T/C (second compound 0.0316 µM, first compound 0.01 µM): 79%
- viability, T/C (second compound 0.0316 µM, first compound 0.0316 µM): 72%
- viability, T/C (second compound 0.0316 µM, first compound 0.1 µM): 64.8%
- viability, T/C (second compound 0.1 µM, first compound 0.000316 µM): 66.5%
- viability, T/C (second compound 0.1 µM, first compound 0.001 µM): 83.7%
- viability, T/C (second compound 0.1 µM, first compound 0.00316 µM): 80.7%
- viability, T/C (second compound 0.1 µM, first compound 0.01 µM): 74.2%
- viability, T/C (second compound 0.1 µM, first compound 0.0316 µM): 85.8%
- viability, T/C (second compound 0.1 µM, first compound 0.1 µM): 58.8%
- viability, T/C (second compound 0.316 µM, first compound 0.000316 µM): 73.8%
- viability, T/C (second compound 0.316 µM, first compound 0.001 µM): 93.5%
- viability, T/C (second compound 0.316 µM, first compound 0.00316 µM): 83%
- viability, T/C (second compound 0.316 µM, first compound 0.01 µM): 49%
- viability, T/C (second compound 0.316 µM, first compound 0.0316 µM): 68.7%
- viability, T/C (second compound 0.316 µM, first compound 0.1 µM): 72%
- viability, T/C (second compound 1 µM, first compound 0.000316 µM): 82%
- viability, T/C (second compound 1 µM, first compound 0.001 µM): 70.5%
- viability, T/C (second compound 1 µM, first compound 0.00316 µM): 87.3%
- viability, T/C (second compound 1 µM, first compound 0.01 µM): 90%
- viability, T/C (second compound 1 µM, first compound 0.0316 µM): 56.6%
- viability, T/C (second compound 1 µM, first compound 0.1 µM): 66.5%
